Measured values published in ChEMBL document CHEMBL1147588, “Synthesis and in vitro cytotoxicity of 5-substituted 2-cyanoimino-4-imidazodinone and 2-cyanoimino-4-pyrimidinone derivatives” (Bioorg Med Chem Lett, 2004).

Tests used:
DLD-1 = assay: Cytotoxic activity against DLD1 colon cancer cell line; assay type: functional, cell-based; details: Homo sapiens
HA22T cell line [1] = assay: Cytotoxic activity against HA22T liver cancer cell line; assay type: functional, cell-based; details: Homo sapiens
HONE1 cell line = assay: Cytotoxic activity against HONE1 nasopharyngeal carcinoma cell line; assay type: functional, cell-based; details: Homo sapiens
HepG2 = assay: Cytotoxic activity against HepG2 liver cancer cell line; assay type: functional, cell-based; details: Homo sapiens
MCF7 [2] = assay: Cytotoxic activity against MCF breast cancer cell line; assay type: functional, cell-based; details: Homo sapiens
NUGC = assay: Cytotoxic activity against NUGC gastric cancer cell line; assay type: functional, cell-based; details: Homo sapiens, Stomach
WI-38 = assay: Cytotoxic activity against WI38 normal fibroblast cell line; na=Not active; assay type: functional, cell-based, Homo sapiens
HA22T cell line [3] = assay: Cytotoxic activity against HA22T liver cancer cell line; na=Not active; assay type: functional, cell-based, Homo sapiens
MCF7 [4] = assay: Cytotoxic activity against MCF breast cancer cell line; na=Not active; assay type: functional, cell-based, Homo sapiens

SMILES	IC50 (DLD-1) [µM]	IC50 (HA22T cell line [1]) [µM]	IC50 (HONE1 cell line) [µM]	IC50 (HepG2) [µM]	IC50 (MCF7 [2]) [µM]	IC50 (NUGC) [µM]	IC50 (WI-38)	IC50 (HA22T cell line [3])	IC50 (MCF7 [4])
N#C/N=C1\N(CCCCCCCOc2ccc(Cl)cc2)C(=O)C(c2ccccc2)N1c1ccncc1 (configuration not stated)	0.29	0.831	0.398	0.38	1.17	3.35	Not Active		
N#C/N=C1\N(CCCCCCOc2ccc(Cl)cc2)C(=O)C(c2ccccc2)N1c1ccncc1 (configuration not stated)	0.037	0.526	0.337	0.044	1.13	3.34	Not Active		
CC1C(=O)N(CCCCCCOc2ccc(Cl)cc2)/C(=N\C#N)N1c1ccncc1 (configuration not stated)	0.333	0.382	0.303	0.282	0.27	0.214	Not Active		
CCC1C(=O)N(CCCCCCOc2ccc(Cl)cc2)/C(=N\C#N)N1c1ccncc1 (configuration not stated)	3.56	5.13	3.87	4.35	6.91	0.406	Not Active		
CC1C(=O)N(CCCCCOc2ccc(Cl)cc2)/C(=N\C#N)N1c1ccncc1 (configuration not stated)	4.11		3.68	4.09	9.26	1.78	Not Active	Not Active	
N#C/N=C1\N(CCCCCOc2ccc(Cl)cc2)C(=O)CCN1c1ccncc1	6.74		3.45	2.83	5.46	3.12	Not Active	Not Active	
N#C/N=C1\N(CCCCCOc2ccc(Cl)cc2)C(=O)C(c2ccccc2)N1c1ccncc1 (configuration not stated)	0.337	3.59	0.373	0.415	1	3.45	Not Active		
CC1C(=O)N(CCCCCCCOc2ccc(Cl)cc2)/C(=N\C#N)N1c1ccncc1 (configuration not stated)	0.37	0.688	0.371	0.359	0.46	1.25	Not Active		
N#C/N=C1\N(CCCCCCCOc2ccc(Cl)cc2)C(=O)CN1c1ccncc1	3.34	3.5	3.24	2.74	0.815	0.926	Not Active		
N#C/N=C1\N(CCCCCCOc2ccc(Cl)cc2)C(=O)CCN1c1ccncc1	0.565	3.04	0.577	0.344	0.454	0.288	Not Active		
N#C/N=C1\N(CCCCCCOc2ccc(Cl)cc2)C(=O)CN1c1ccncc1	3.44	3.86	2.96	0.392	0.443	0.386	Not Active		
N#C/N=C1\N(CCCCCCCOc2ccc(Cl)cc2)C(=O)CCN1c1ccncc1	3.2	7.56	3.44	4	6.84	1.1	Not Active		
N#C/N=C1\N(CCCCCOc2ccc(Cl)cc2)C(=O)CN1c1ccncc1	3.8	8.97	3.4	4.2	5.36	2.76	Not Active		
CCC1C(=O)N(CCCCCCCOc2ccc(Cl)cc2)/C(=N\C#N)N1c1ccncc1 (configuration not stated)	3.53	6.05	3.23	3.45	4.54	1.28	Not Active		
CCC1C(=O)N(CCCCCOc2ccc(Cl)cc2)/C(=N\C#N)N1c1ccncc1 (configuration not stated)	4.08		4.83	4.32		3.04	Not Active	Not Active	Not Active
N#CN=C(NCCCCCCOc1ccc(Cl)cc1)Nc1ccncc1 [CHS-828]	2.31	2.07	0.015	1.25	0.018	0.025	Not Active		
